Data published in patent US9808003B2, “Herbicidally active 2-(substituted-phenyl)-cyclopentane-1,3-dione compounds and derivatives thereof” (Syngenta Limited, priority 2013, dated 2017).

Assays:
Assay in all cases: Test 1A glasshouse assay, post-emergence herbicidal activity
Type in all cases: in vivo
[1] = tested on: Alopecurus myosuroides (ALOMY); conditions: Alopecurus myosuroides, 312 h, application rate 250 g/ha, 13 days after application, visual (100%=total damage; 0%=no damage), read-out: Post-emergence Herbicidal Activity (% Phytotoxicity) ALOMY
Method in brief: (§1)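 Post-emergence: plants sprayed after 8 days' glasshouse growth (24/16° C, 14 h light, 65% humidity) with acetone/water (50:50) formulation containing 0.5% Tween 20. Visual % phytotoxicity (0 = none, 100 = total damage) scored 13 days after application.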

[2] = tested on: Avena fatua (AVEFA); conditions: Avena fatua, 312 h, application rate 250 g/ha, 13 days after application, visual (100%=total damage; 0%=no damage), read-out: Post-emergence Herbicidal Activity (% Phytotoxicity) AVEFA
Method in brief: as §1

[3] = tested on: Echinochloa crus-galli (ECHCG); conditions: Echinochloa crus-galli, 312 h, application rate 250 g/ha, 13 days after application, visual (100%=total damage; 0%=no damage), read-out: Post-emergence Herbicidal Activity (% Phytotoxicity) ECHCG
Method in brief: as §1

[4] = tested on: Lolium perenne (LOLPE); conditions: Lolium perenne, 312 h, application rate 250 g/ha, 13 days after application, visual (100%=total damage; 0%=no damage), read-out: Post-emergence Herbicidal Activity (% Phytotoxicity) LOLPE
Method in brief: as §1

| Structure (SMILES) | pest or weed control at 250 g/ha [1] | pest or weed control at 250 g/ha [2] | pest or weed control at 250 g/ha [3] | pest or weed control at 250 g/ha [4] |
| --- | --- | --- | --- | --- |
| Cc1cc(Oc2ncc(C(F)(F)F)cc2Cl)cc(C)c1C1C(=O)CC(CCNC(=O)c2ccccn2)C1=O (centres unmarked) [Compound A126B, N-[2-[3-[4-[[3-chloro-5-(trifluoromethyl)-2-pyridyl]oxy]-2,6-dimethyl-phenyl]-2,4-dioxo-cyclopentyl]ethyl]pyridine-2-carboxamide] | 90% | 90% | 100% | 90% |
| Cc1cc(-n2cc(Cl)cn2)cc(C)c1C1C(=O)CC(CCNC(=O)c2ccc(F)cn2)C1=O (centres unmarked) [Compound A129] | 100% | 100% | 100% | 100% |
| Cc1cccc(C(=O)NCCC2CC(=O)C(c3c(C)cc(-n4cc(Cl)cn4)cc3C)C2=O)n1 (centres unmarked) [Compound A130] | 30% | 80% | 80% | 80% |
| Cc1cc(-n2cc(Cl)cn2)cc(C)c1C1C(=O)CC(CCNC(=O)c2nc(Cl)ccc2Cl)C1=O (centres unmarked) [Compound A131] | 100% | 100% | 100% | 100% |
| Cc1cc(-n2cc(Cl)cn2)cc(C)c1C1C(=O)CC(CCNC(=O)c2cccc(Cl)n2)C1=O (centres unmarked) [Compound A132] | 100% | 100% | 100% | 100% |
| Cc1cc(-n2cc(Cl)cn2)cc(C)c1C1C(=O)CC(CCNC(=O)c2ncccc2F)C1=O (centres unmarked) [Compound A133] | 100% | 90% | 100% | 100% |
| Cc1cc(-n2cc(Cl)cn2)cc(C)c1C1C(=O)CC(CCNC(=O)c2cccc(Br)n2)C1=O (centres unmarked) [Compound A134] | 100% | 100% | 100% | 100% |
| Cc1cc(-n2cc(Cl)cn2)cc(C)c1C1C(=O)CC(CCNC(=O)c2cccc(F)n2)C1=O (centres unmarked) [Compound A135] | 100% | 90% | 100% | 100% |
| Cc1cc(-n2cc(Cl)cn2)cc(C)c1C1C(=O)CC(CCNC(=O)c2ccc(Br)cn2)C1=O (centres unmarked) [Compound A136] | 100% | 90% | 100% | 100% |
| Cc1cc(-n2cc(Cl)cn2)cc(C)c1C1C(=O)CC(CCNC(=O)c2ccc(C#N)cn2)C1=O (centres unmarked) [Compound A137] | 80% | 70% | 100% | 80% |
| Cc1cc(-n2cc(Cl)cn2)cc(C)c1C1C(=O)CC(CCNC(=O)c2cc(Cl)ccn2)C1=O (centres unmarked) [Compound A138] | 100% | 90% | 100% | 100% |
| Cc1cc(-n2cc(Cl)cn2)cc(C)c1C1C(=O)CC(CCNC(=O)c2cccc(C(F)(F)F)n2)C1=O (centres unmarked) [Compound A139] | 90% | 90% | 90% | 100% |
| Cc1cc(-n2cc(Cl)cn2)cc(C)c1C1C(=O)CC(CCNC(=O)c2nc(Cl)ccc2Br)C1=O (centres unmarked) [Compound A140] | 90% | 100% | 100% | 100% |
| C#CCOc1cc(C)c(C2C(=O)CC(CCNC(=O)c3ccccn3)C2=O)c(C)c1 (centres unmarked) [Compound A141A] | 80% | 80% | 80% | 70% |
| Cc1cc(-n2cc(Cl)cn2)cc(C)c1C1C(=O)CC(CCNC(=O)c2cc(Cl)cc(Cl)n2)C1=O (centres unmarked) [Compound A141] | 60% | 10% | 100% | 70% |
| Cc1cc(-n2cc(C#N)cn2)cc(C)c1C1C(=O)CC(CCNC(=O)c2ccccn2)C1=O (centres unmarked) [Compound A142, N-[2-[3-[4-(4-cyanopyrazol-1-yl)-2,6-dimethyl-phenyl]-2,4-dioxo-cyclopentyl]ethyl]pyridine-2-carboxamide] | 100% | 90% | 100% | 100% |
| Cc1cc(C)c(C2C(=O)CC(CCNC(=O)c3nc(Cl)sc3C)C2=O)c(C)c1 (centres unmarked) [Compound A143] | 90% | 90% | 100% | 100% |
| Cc1cc(Cl)c(C2C(=O)CC(CCNC(=O)c3ncccc3F)C2=O)c(Cl)c1 (centres unmarked) [Compound A144] | 30% | 90% | 100% | 90% |

| Structure (SMILES) | pest or weed control at 250 g/ha [1] | pest or weed control at 250 g/ha [2] | pest or weed control at 250 g/ha [3] | pest or weed control at 250 g/ha [4] |
| --- | --- | --- | --- | --- |
| Cc1cc(C)c(C2C(=O)CC(CCNC(=O)c3cc(Cl)cc(Cl)n3)C2=O)c(C)c1 (centres unmarked) [Compound A146] | 60% | 40% | 100% | 70% |
| Cc1cc(C)c(C2C(=O)CC(CCNC(=O)c3cccc(C#N)n3)C2=O)c(C)c1 (centres unmarked) [Compound A147] | 60% | 60% | 60% | 70% |
| Cc1cc(C)c(C2C(=O)CC(CCNC(=O)c3cc(C#N)ccn3)C2=O)c(C)c1 (centres unmarked) [Compound A148] | 70% | 90% | 90% | 90% |
| Cc1cc(C)c(C2C(=O)CC(CCNC(=O)c3nc(F)ccc3Br)C2=O)c(C)c1 (centres unmarked) [Compound A149] | 100% | 100% | 100% | 100% |
| Cc1cc(C)c(C2C(=O)CC(CCNC(=O)c3ncc(C#N)cc3Cl)C2=O)c(C)c1 (centres unmarked) [Compound A150] | 70% | 90% | 80% | 80% |
| Cc1cc(C)c(C2C(=O)CC(CCNC(=O)c3cccnc3F)C2=O)c(C)c1 (centres unmarked) [Compound A151] | 90% | 90% | 90% | 90% |
| Cc1cc(C)c(C2C(=O)CC(CCNC(=O)c3cccnc3C(F)(F)F)C2=O)c(C)c1 (centres unmarked) [Compound A152] | 80% | 70% | 80% | 70% |
| Cc1cc(-n2cc(Cl)cn2)cc(C)c1C1C(=O)CC(CCNC(=O)c2cc(Br)ccn2)C1=O (centres unmarked) [Compound A154] | 100% | 100% | 100% | 100% |
| Cc1cc(-n2cc(Cl)cn2)cc(C)c1C1C(=O)CC(CCNC(=O)c2ccc(Cl)cn2)C1=O (centres unmarked) [Compound A155] | 100% | 100% | 100% | 100% |
| Cc1ccnc(C(=O)NCCC2CC(=O)C(c3c(C)cc(-n4cc(Cl)cn4)cc3C)C2=O)c1 (centres unmarked) [Compound A156] | 50% | 90% | 100% | 90% |
| Cc1cc(C)c(C2C(=O)CC(CCNC(=O)c3cncc(Cl)c3)C2=O)c(C)c1 (centres unmarked) [Compound A157] | 70% | 70% | 90% | 70% |
| Cc1cc(C)c(C2C(=O)CC(CCNC(=O)c3ccc(F)nc3)C2=O)c(C)c1 (centres unmarked) [Compound A158] | 80% | 90% | 70% | 80% |
| Cc1cc(C)c(C2C(=O)CC(CCNC(=O)c3nn(C)c(Cl)c3C)C2=O)c(C)c1 (centres unmarked) [Compound A160] | 90% | 100% | 100% | 90% |
| Cc1cc(C)c(C2C(=O)CC(CCNC(=O)c3c(Cl)c(C(F)(F)F)nn3C)C2=O)c(C)c1 (centres unmarked) [Compound A161] | 90% | 100% | 100% | 100% |
| Cc1cc(C)c(C2C(=O)CC(CCNC(=O)c3cc(C4CC4)on3)C2=O)c(C)c1 (centres unmarked) [Compound A162] | 70% | 90% | 90% | 100% |
| Cc1cc(C)c(C2C(=O)CC(CCNC(=O)c3nnsc3C)C2=O)c(C)c1 (centres unmarked) [Compound A164] | 90% | 100% | 100% | 90% |
| O=C(NCCC1CC(=O)C(c2c(Cl)cc(-c3ccc(F)cc3)cc2Cl)C1=O)c1cccc(F)n1 (centres unmarked) [Compound A165] | 90% | 100% | 100% | 100% |
